Reference: ChEMBL document CHEMBL1138942, “Inactivation of GABA transaminase by 4-acryloylphenol” (Bioorg Med Chem Lett, 2006)

Tests used:
[1] = (§1) Inhibition of GABA-T; design: species or system Rattus norvegicus
Rattus norvegicus = species on record: Rattus norvegicus; experiment: as §1

C=CC(=O)c1ccc(O)cc1
Ki [1]: 470 µM | Activity (Rattus norvegicus): Time-dependent effect
